Experiments:
MCF-7 cells = assay: Breast Cancer Cell Viability Assays (MCF-7, CellTiter-Glo); format: cell-based; settings: 5 days' compound exposure; for IC50: Homo sapiens, MCF7, 120 h
In short: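 MCF-7 cells (320/well, RPMI with 10% FBS) exposed for 5 days to an eleven-point semilog series, 0.3–0.000003 μM final. Viability read by CellTiter-Glo luminescence, expressed as background-corrected percent of untreated cells.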

ER-α in MCF-7 cells = target: T1, ER-α in MCF-7 cells (Homo sapiens, UniProt P03372); assay: Breast Cancer Cell ER-α In Cell Western Assay (SP1); format: cell-based; settings: 4 or 24 hr post compound addition; for Emax: MCF7, SP1 antibody, read-out: ER-α In Cell Western Assay (SP1) Max Response; for DC50: SP1 antibody, read-out: ER-α In Cell Western Assay (SP1) IC50
T1 construct: endogenous in cells; host or cells: MCF-7
T1 sequence (P03372 1-595): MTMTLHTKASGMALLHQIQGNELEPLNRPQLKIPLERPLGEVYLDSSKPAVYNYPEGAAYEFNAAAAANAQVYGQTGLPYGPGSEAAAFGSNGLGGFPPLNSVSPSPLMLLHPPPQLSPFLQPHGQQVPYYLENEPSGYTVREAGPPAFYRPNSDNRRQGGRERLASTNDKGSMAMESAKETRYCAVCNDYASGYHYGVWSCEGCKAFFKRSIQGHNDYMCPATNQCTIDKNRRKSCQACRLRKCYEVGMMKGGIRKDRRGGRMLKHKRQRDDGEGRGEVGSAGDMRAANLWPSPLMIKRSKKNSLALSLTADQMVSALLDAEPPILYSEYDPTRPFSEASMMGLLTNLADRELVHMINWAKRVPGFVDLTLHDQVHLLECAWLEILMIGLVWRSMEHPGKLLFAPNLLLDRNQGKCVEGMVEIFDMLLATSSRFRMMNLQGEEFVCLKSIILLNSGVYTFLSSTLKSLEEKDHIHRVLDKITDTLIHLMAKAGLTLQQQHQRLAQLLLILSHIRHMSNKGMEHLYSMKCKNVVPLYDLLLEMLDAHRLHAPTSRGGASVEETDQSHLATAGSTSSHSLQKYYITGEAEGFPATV
In short: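 MCF-7 cells in charcoal-stripped FBS medium, treated with 11-point semilog dilutions (0.3–0.000003 μM final) for 4 or 24 h. Fixed cells immunostained with SP1 antibody (800 nm) and DRAQ5 DNA (700 nm); ER/DNA ratio expressed as % of untreated cells.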

Row | Compound | IC50 (MCF-7 cells) [nM] | Emax (ER-α in MCF-7 cells) [%] | DC50 (ER-α in MCF-7 cells) [nM] | MCF7 Viability Assay Max Response (MCF-7 cells)
1 | O=C(O)/C=C/c1ccc(/C(=C(\c2ccc(F)cc2Cl)C2CCC2)c2ccc3[nH]c(=O)oc3c2)cc1 [Example 28, (E)-3-(4-((E)-2-(2-Chloro-4-fluorophenyl)-2-cyclobutyl-1-(2-oxo-2,3-dihydrobenzo[d]oxazol-6-yl)vinyl)phenyl)acrylic acid] | ≤ 100 | ≥ 40 | ≤ 100 | ++ (++ = a single % value ≧ 40%)
2 | COc1ncc(/C(=C(\c2ccc(/C=C/C(=O)O)cc2)c2ccc3[nH]nc(F)c3c2)C2CCC2)c(C(F)(F)F)n1 [Example 111, (E)-3-(4-((E)-2-Cyclobutyl-1-(3-fluoro-1H-indazol-5-yl)-2-(2-methoxy-4-(trifluoromethyl)pyrimidin-5-yl)vinyl)phenyl)acrylic acid] | ≤ 100 | ≥ 40 | ≤ 100 | ++ (++ = a single % value ≧ 40%)
3 | COc1ccc(/C(=C(\c2ccc(/C=C/C(=O)O)cc2)c2ccc3[nH]nc(F)c3c2)C2CCC2)c(Cl)c1 [Example 67, (E)-3-(4-((E)-2-(2-Chloro-4-methoxyphenyl)-2-cyclobutyl-1-(3-fluoro-1H-indazol-5-yl)vinyl)phenyl)acrylic acid] | ≤ 100 | ≥ 40 | ≤ 100 | ++ (++ = a single % value ≧ 40%)
4 | N#Cc1cc(Cl)ccc1/C(=C(\c1ccc(/C=C/C(=O)O)cc1)c1ccc2nccn2c1)C1CCC1 [Example 227, (E)-3-(4-((E)-2-(4-Chloro-2-cyanophenyl)-2-cyclobutyl-1-(imidazo[1,2-a]pyridin-6-yl)vinyl)phenyl)acrylic acid] | ≤ 100 | ≥ 40 | ≤ 100 | ++ (++ = a single % value ≧ 40%)
5 | CC/C(=C(/c1ccc(/C=C/C(=O)O)cc1)c1ccc2[nH]nc(F)c2c1)c1cccc(Oc2cnc(S(C)(=O)=O)cn2)c1 [Example 57, (E)-3-(4-((E)-1-(3-Fluoro-1H-indazol-5-yl)-2-(3-((5-(methylsulfonyl)pyrazin-2-yl)oxy)phenyl)but-1-en-1-yl)phenyl)acrylic acid] | ≤ 100 | ≥ 40 | ≤ 100 | ++ (++ = a single % value ≧ 40%)
6 | CC/C(=C(/c1ccc(/C=C/C(=O)O)cc1)c1ccc2[nH]nc(F)c2c1F)c1ccccc1 [Example 7, (E)-3-(4-((E)-1-(3,4-Difluoro-1H-indazol-5-yl)-2-phenylbut-1-en-1-yl)phenyl)acrylic acid] | ≤ 100 | ≥ 40 | ≤ 100 | ++ (++ = a single % value ≧ 40%)
7 | Fc1ccc(/C(=C(\c2ccc(/C=C/c3nnn[nH]3)cc2)c2cccc3[nH]ncc23)C2CCC2)c(Cl)c1 [Example 173, 4-((E)-1-(4-((E)-2-(2H-Tetrazol-5-yl)vinyl)phenyl)-2-(2-chloro-4-fluorophenyl)-2-cyclobutylvinyl)-1H-indazole] | ≤ 100 | ≥ 40 | ≤ 100 | ++ (++ = a single % value ≧ 40%)
8 | Cc1cc(/C(=C(\c2ccc(/C=C/C(=O)O)cc2)c2ccc3[nH]nc(F)c3c2)C2CCC2)c(C)s1 [Example 150, (E)-3-(4-((E)-2-Cyclobutyl-2-(2,5-dimethylthiophen-3-yl)-1-(3-fluoro-1H-indazol-5-yl)vinyl)phenyl)acrylic acid] | ≤ 100 | ≥ 40 | ≤ 100 | ++ (++ = a single % value ≧ 40%)
9 | O=C(O)/C=C/c1ccc(/C(=C(\c2ncccc2Cl)C2CCC2)c2cccc3[nH]nc(F)c23)cc1 [Example 246, (E)-3-(4-((E)-2-(3-Chloropyridin-2-yl)-2-cyclobutyl-1-(3-fluoro-1H-indazol-4-yl)vinyl)phenyl)acrylic acid] | ≤ 100 | ≥ 40 | ≤ 100 | ++ (++ = a single % value ≧ 40%)
10 | O=C(O)/C=C/c1ccc(/C(=C(\c2ccncc2F)C2CCC2)c2ccc3[nH]nc(F)c3c2)cc1 [Example 52, (E)-3-(4-((E)-2-Cyclobutyl-1-(3-fluoro-1H-indazol-5-yl)-2-(3-fluoropyridin-4-yl)vinyl)phenyl)acrylic acid] | ≤ 100 | ≥ 40 | ≤ 100 | ++ (++ = a single % value ≧ 40%)
11 | CC/C(=C(/c1ccc(/C=C/C(=O)O)cc1)c1ccc2[nH]nc(F)c2c1)c1ncc(Cl)cc1Cl [Example 264, (E)-3-(4-((E)-2-(3,5-Dichloropyridin-2-yl)-1-(3-fluoro-1H-indazol-5-yl)but-1-en-1-yl)phenyl)acrylic acid] | ≤ 100 | ≥ 40 | ≤ 100 | ++ (++ = a single % value ≧ 40%)
12 | Cc1ccccc1/C(=C(\c1ccc(/C=C/C(=O)O)cc1)c1ccc2[nH]nc(F)c2c1)C1CC1 [Example 29, (E)-3-(4-((E)-2-Cyclopropyl-1-(3-fluoro-1H-indazol-5-yl)-2-(o-tolyl)vinyl)phenyl)acrylic acid] | ≤ 100 | ≥ 40 | ≤ 100 | ++ (++ = a single % value ≧ 40%)

Now from value to compound, other results behind:

Row | IC50 (MCF-7 cells) [nM] | Emax (ER-α in MCF-7 cells) [%] | DC50 (ER-α in MCF-7 cells) [nM] | Compound | MCF7 Viability Assay Max Response (MCF-7 cells)
13 | > 100 | ≥ 40 | ≤ 100 | O=C(O)/C=C/c1ccc(/C(=C(\c2ccc(F)cc2Cl)C2CCC2)c2ccc3[nH]nc(C(F)(F)F)c3c2)cc1 [Example 252, (E)-3-(4-((E)-2-(2-Chloro-4-fluorophenyl)-2-cyclobutyl-1-(3-(trifluoromethyl)-1H-indazol-5-yl)vinyl)phenyl)acrylic acid] | ++ (++ = a single % value ≧ 40%)
14 | ≤ 100 | ≥ 40 | ≤ 100 | COc1ccc(/C(=C(\c2ccc(/C=C/C(=O)O)cc2)c2ccc3[nH]nc(F)c3c2)C2CC2)cc1 [Example 30, (E)-3-(4-((E)-2-Cyclopropyl-1-(3-fluoro-1H-indazol-5-yl)-2-(4-methoxyphenyl)vinyl)phenyl)acrylic acid] | ++ (++ = a single % value ≧ 40%)
15 | ≤ 100 | ≥ 40 | ≤ 100 | CC/C(=C(/c1ccc(/C=C/C(=O)NC)cc1)c1ccc2scnc2c1)c1ccc(F)cc1Cl [Example 184, (E)-3-(4-((E)-1-(Benzo[d]thiazol-5-yl)-2-(2-chloro-4-fluorophenyl)but-1-en-1-yl)phenyl)-N-methylacrylamid] | ++ (++ = a single % value ≧ 40%)
16 | ≤ 100 | ≥ 40 | ≤ 100 | O=C(O)/C=C/c1ccc(/C(=C(\c2ncc(Cl)cc2Cl)C2CCC2)c2ccc3[nH]nc(F)c3c2)cc1F [Example 254, (E)-3-(4-((Z)-2-Cyclobutyl-2-(3,5-dichloropyridin-2-yl)-1-(3-fluoro-1H-indazol-5-yl)vinyl)-2-fluorophenyl)acrylic acid] | ++ (++ = a single % value ≧ 40%)
17 | ≤ 100 | ≥ 40 | ≤ 100 | CC/C(=C(/c1ccc(/C=C/C(=O)O)cc1)c1ccc2[nH]ncc2c1C#N)c1ccccc1 [Example 3, (E)-3-(4-((E)-1-(4-Cyano-1H-indazol-5-yl)-2-phenylbut-1-en-1-yl)phenyl)acrylic acid] | ++ (++ = a single % value ≧ 40%)

— patent US9499538B2, “Estrogen receptor modulators and uses thereof” (Seragon Pharmaceuticals, Inc., priority 2012, dated 2016)
